Consider two substances from article PMC4482410, “A Peptide Mimetic of 5-Acetylneuraminic Acid-Galactose Binds with High Avidity to Siglecs and NKG2D” (PLoS ONE, 2015).

Several values for one entry are separate records, joined by “and”; a condition that tells them apart may be missing. Equal values may be shown once. Bridges are numbered along the chain shown (N, C = ends). Roman numbers before positions name the chains, in order. Where no end group is shown, it is not given here.

The nature of one data set: toxicity in vivo. Particulars: statement for svH1C or similar glycan mimetics; no data shown.
In data set [1] the target is T1, NKG2D (Homo sapiens, UniProt P26718).
T1 construct: the extracellular lectin-type domain was fused at the N-terminus with a human IgG1 Fc domain; purchased R&D Systems, Inc., Minneapolis, MN
T1 sequence (P26718 73-216 limits assumed): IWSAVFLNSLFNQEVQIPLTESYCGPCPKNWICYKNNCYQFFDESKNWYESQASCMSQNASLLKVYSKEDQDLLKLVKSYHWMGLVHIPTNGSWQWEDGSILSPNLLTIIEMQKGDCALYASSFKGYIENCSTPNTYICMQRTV
Kind of data set: inhibition of binding of svH1C to NKG2D. As to conditions: estimated from fetuin inhibition (Fig 4); read-out: binding constant of svH1C to NKG2D estimated by inhibition of binding by fetuin. The protocol:
(§1) Isothermal microcalorimetry was performed by TA Instruments Professional Services (New Castle, DE) by titrating 10 μM NKG2D (monomer concentration) (R&D Systems, Inc., Minneapolis, MN) with 100 μM svH1C in 50 mM Tris-HCl, pH 7.5, 150 mM NaCl, 0.1 mM EDTA. Recombinant human receptors were obtained from R&D Systems as chimeric proteins. NKG2D is a type II transmembrane protein and the extracellular lectin-type domain was fused at the N-terminus with a human IgG1 Fc domain. Recombinant siglecs contained a C-terminal IgG1 Fc domain or a His6–10 tag. The lyophilized proteins were reconstituted in phosphate-buffered saline, pH 7.2 (PBS), to 100 μg/mL. The Fc-chimeric proteins were bound to protein A/G-coated wells of microtiter plates (Pierce Biotechnology). His-tagged proteins were bound in Nickel-coated plates (Pierce Biotechnology). Sufficient proteins were added to wells to saturate the binding capacity of the wells. After a wash to remove unbound receptor, wells were blocked with 1% gelatin in wash buffer. […] Absorbance was measured at 450 nm and converted to the amount of streptavidin-peroxidase bound with the specific activity of the conjugate determined under the conditions of the assay. […]
Fig 4 Binding of svH1C to NKG2D. (A) The amount of bound peptide was measured after extensive washing with PBS containing 0.05% Tween-20. […]

Data set [2] addresses T1, NKG2D. Kind of data set: isothermal microcalorimetry. The format is binding. On the procedure:
as §1, with “wells.” for “wells. After a wash to remove unbound receptor, wells were blocked with 1% gelatin in wash buffer.”
We then assayed binding of svH1C to NKG2D directly by isothermal microcalorimetry. svH1C (100 μM) was titrated into a solution of NKG2D (10 μM, subunit concentration) and changes in heat content of the system were measured. […]

In a further data set the test system is siglecs. Kind of data set: solid-phase binding of biotinylated tetravalent peptides to siglecs. Also noted: species or system human. As to conditions: biotinylated peptides 2 μM. The protocol: as §1, with “buffer. Wash buffers were either 10 mM phosphate, pH 7.2; 10 mM HEPES, pH 7.4; or 50 mM Tris-HCl, pH.7.5, each in 150 mM NaCl containing 0.05% Tween-20. Biotinylated peptides were prepared as 2 μM solutions in the wash buffer and 50 μL (100 pmoles) were added to each well and incubated at room temperature for one hour. After four washes with 350 μL buffer containing 0.05% Tween-20, each assay was incubated with 50 μL of 1 μg/mL streptavidin-peroxidase (Sigma-Aldrich, St. Louis, MO).” for “buffer.”
MAA is a mixture of M. amurensis leukoagglutinin (MAL) and M. amurensis hemagglutinin (MAH), both of which along with SNA1 bind preferentially to terminal Neu5Ac-Gal- sequences on complex glycans. Binding of the peptide to several lectins specific for monosaccharides was not detected. […]

The test system of data set [3] is lectins specific for di- or tri-saccharides that terminate with Neu5Ac-Gal. Particulars: ref [29],[30]; cited from earlier work. The text has this:
We initially identified several sequences of amino acids that bound to specific plant lectins by screening phage display libraries. Sequences were further refined by in silico modeling of docking of a peptide into the sugar binding site of the crystal structures of lectins. These studies predicted that several short peptide sequences, 5 to 8 amino acids in length, would have significant affinity to lectins chosen as analogs of cell-surface receptors. The sequences identified by this approach were incorporated into tetravalent structures, a design based on the concept of avidity as a fun ...

Data set [4] has as its system lectins that bind monosaccharides. Particulars: ref [29],[30]; cited from earlier work. The source says:
We initially identified several sequences of amino acids that bound to specific plant lectins by screening phage display libraries. Sequences were further refined by in silico modeling of docking of a peptide into the sugar binding site of the crystal structures of lectins. These studies predicted that several short peptide sequences, 5 to 8 amino acids in length, would have significant affinity to lectins chosen as analogs of cell-surface receptors. […] MAA is a mixture of M. amurensis leukoagglutinin (MAL) and M. amurensis hemagglutinin (MAH), both of which along with SNA1 bind preferentially to terminal Neu5Ac-Gal- sequences on complex glycans. Binding of the peptide to several lectins specific for monosaccharides was not detected. We then assayed binding of svH1C to several siglecs, which comprise a family of cell-surface receptors that are specific for Neu5Ac-Gal/GalNAc- sequ ...

Take “I: NPSHPLSGGGGSKK-NH2 / II: NPSHPLSGGGGSK / III: NPSHPLSGGGGS / IV: NPSHPLSGGGGS (amide I:13-IV:C, I:14-II:C, II:13-III:C) [svH1C, [(NPSHPLSGGGGS)2K]2K-NH2]”: the toxicity in vivo entry in “toxicity in vivo” is “non-toxic in vivo”. Besides, the Kd at NKG2D [1] was approximately 1000 nM; on NKG2D [2] (100 μM svH1C titrated into 10 μM NKG2D (subunit concentration), 50 mM Tris-HCl, pH 7.5, 150 mM NaCl, 0.1 mM EDTA, read-out: KD), 580 nM and 600 nM; at NKG2D [2] (abstract, range for siglecs and NKG2D together, read-out: KD, NKG2D (abstract range)), 600 to 1000 nM.
Regarding “NPSHPSLG (also: tetravalent, biotinylated) [svH1D]”, in the data set with siglecs, the “binding of biotinylated tetravalent peptides to siglecs” value is “also bound to siglecs”. The “binding to lectins specific for di- or tri-saccharides that terminate with Neu5Ac-Gal” value in data set [3] is “bound strongly”. For the same substance, in data set [4], the “binding to lectins specific for monosaccharides” value is “did not bind”.
